# In PMC9005681, “Use of AD Informer Set compounds to explore validity of novel targets in Alzheimer's disease pathology” (Alzheimer's & Dementia : Translational Research & Clinical …, 2022):
# Where “and” joins values, the source holds several entries; their conditions need not be identical. Equal entries are not always repeated.
# Experiments:
# Experiment in all cases: PDSP GPCR panel primary binding assays at 10 μM
# [1] = test system: cloned human or rodent CNS receptors, channels, and transporters (PDSP panel); conditions: 10 μM; for Inhibition 1 / Inhibition 2 / Inhibition 3 / Inhibition 4 / Mean %: primary assay; for Mean %: mean of Inhibition 1-4
# Procedure, shortened: (§1)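 Secondary binding curves (11 points, triplicate) were run at targets where the 10 μM primary screen, done in quadruplicate, displaced over 50% of radio-labelled standard ligand on average. Primary screening covered 46–47 cloned human or rodent CNS targets; H3, PBR and GABAA were not followed up.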
# [2] = biological target: T1, cloned human or rodent CNS receptors, channels, and transporters (PDSP panel) (Homo sapiens, UniProt P23975); conditions: Receptor NET, primary assay, 10 μM; for Mean %: mean of Inhibition 1-4
# T1 construct: expressed in transfected cells
# T1 sequence (P23975 whole entry): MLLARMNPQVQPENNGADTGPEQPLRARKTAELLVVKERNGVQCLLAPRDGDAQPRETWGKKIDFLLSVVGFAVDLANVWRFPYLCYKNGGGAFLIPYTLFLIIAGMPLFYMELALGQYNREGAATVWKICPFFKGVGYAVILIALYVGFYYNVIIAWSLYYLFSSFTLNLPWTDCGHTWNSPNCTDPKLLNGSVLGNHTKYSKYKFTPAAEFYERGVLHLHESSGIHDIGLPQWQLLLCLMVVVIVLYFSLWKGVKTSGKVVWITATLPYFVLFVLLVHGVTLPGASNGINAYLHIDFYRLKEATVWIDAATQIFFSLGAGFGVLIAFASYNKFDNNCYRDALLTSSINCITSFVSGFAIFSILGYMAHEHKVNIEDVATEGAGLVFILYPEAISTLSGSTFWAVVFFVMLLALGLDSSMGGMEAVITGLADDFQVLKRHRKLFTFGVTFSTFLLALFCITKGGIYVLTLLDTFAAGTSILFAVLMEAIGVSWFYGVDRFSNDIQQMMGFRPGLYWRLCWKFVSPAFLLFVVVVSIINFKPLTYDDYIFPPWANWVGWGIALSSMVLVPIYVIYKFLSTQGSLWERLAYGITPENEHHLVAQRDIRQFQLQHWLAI
# Procedure, shortened: as §1
# [3] = biological target: T2, cloned human or rodent CNS receptors, channels, and transporters (PDSP panel) (Homo sapiens, UniProt Q01959); conditions: Receptor DAT, primary assay, 10 μM; for Mean %: mean of Inhibition 1-4
# T2 construct: expressed in transfected cells
# T2 sequence (Q01959 whole entry): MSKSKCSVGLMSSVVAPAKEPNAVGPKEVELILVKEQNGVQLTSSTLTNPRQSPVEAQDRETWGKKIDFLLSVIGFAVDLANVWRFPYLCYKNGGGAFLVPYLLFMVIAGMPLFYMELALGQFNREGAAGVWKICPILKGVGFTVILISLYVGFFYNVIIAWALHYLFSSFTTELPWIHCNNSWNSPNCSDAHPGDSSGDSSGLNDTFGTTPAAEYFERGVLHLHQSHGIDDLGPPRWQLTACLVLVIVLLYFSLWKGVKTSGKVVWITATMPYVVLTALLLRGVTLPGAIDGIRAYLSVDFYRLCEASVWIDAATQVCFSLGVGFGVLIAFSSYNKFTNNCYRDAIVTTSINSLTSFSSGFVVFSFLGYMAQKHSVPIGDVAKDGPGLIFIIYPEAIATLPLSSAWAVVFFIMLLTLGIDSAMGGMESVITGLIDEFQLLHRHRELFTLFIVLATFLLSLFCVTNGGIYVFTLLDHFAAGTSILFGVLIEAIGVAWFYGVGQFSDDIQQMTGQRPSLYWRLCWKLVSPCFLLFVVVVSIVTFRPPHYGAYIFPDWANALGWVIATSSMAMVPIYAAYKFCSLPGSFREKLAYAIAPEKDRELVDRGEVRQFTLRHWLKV
# Procedure, shortened: as §1
# [4] = biological target: T3, cloned human or rodent CNS receptors, channels, and transporters (PDSP panel) (Homo sapiens, UniProt P08912); conditions: Receptor M5, primary assay, 10 μM; for Mean %: mean of Inhibition 1-4
# T3 construct: expressed in transfected cells
# T3 sequence (P08912 1-532): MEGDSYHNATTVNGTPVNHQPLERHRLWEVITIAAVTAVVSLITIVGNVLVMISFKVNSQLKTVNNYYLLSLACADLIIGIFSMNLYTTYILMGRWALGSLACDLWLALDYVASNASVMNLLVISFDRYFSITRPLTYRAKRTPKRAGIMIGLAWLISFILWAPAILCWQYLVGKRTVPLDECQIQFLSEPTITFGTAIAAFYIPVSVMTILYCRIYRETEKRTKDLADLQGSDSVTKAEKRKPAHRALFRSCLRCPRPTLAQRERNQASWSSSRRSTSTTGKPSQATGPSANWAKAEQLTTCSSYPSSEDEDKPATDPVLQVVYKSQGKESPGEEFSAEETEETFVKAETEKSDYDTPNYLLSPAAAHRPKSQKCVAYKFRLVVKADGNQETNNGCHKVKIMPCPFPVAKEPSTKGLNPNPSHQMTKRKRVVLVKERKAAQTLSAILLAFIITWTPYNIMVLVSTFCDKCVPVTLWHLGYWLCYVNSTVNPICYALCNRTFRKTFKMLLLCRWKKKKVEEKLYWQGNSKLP
# Procedure, shortened: as §1
# [5] = biological target: T4, cloned human or rodent CNS receptors, channels, and transporters (PDSP panel) (Homo sapiens, UniProt P35367); conditions: Receptor H1, primary assay, 10 μM
# T4 construct: expressed in transfected cells
# T4 sequence (P35367 whole entry): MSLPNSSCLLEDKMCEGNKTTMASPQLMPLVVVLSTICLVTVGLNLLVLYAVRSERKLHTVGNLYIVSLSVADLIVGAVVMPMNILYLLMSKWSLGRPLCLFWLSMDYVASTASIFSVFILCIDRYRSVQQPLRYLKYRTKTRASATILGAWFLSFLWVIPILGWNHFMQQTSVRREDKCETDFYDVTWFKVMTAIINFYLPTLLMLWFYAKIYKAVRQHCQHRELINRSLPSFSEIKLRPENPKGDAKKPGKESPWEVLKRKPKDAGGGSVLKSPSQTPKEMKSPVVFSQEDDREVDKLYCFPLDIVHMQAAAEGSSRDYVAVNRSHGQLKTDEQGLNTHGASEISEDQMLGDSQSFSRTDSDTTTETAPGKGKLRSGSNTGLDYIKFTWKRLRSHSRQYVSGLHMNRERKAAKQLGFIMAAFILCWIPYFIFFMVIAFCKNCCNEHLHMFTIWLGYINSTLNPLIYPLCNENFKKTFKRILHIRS
# Procedure, shortened: as §1
# [6] = biological target: T5, cloned human or rodent CNS receptors, channels, and transporters (PDSP panel) (Homo sapiens, UniProt P41595); conditions: Receptor 5-HT2B, primary assay, 10 μM; for Mean %: mean of Inhibition 1-4
# T5 construct: expressed in transfected cells
# T5 sequence (P41595 whole entry): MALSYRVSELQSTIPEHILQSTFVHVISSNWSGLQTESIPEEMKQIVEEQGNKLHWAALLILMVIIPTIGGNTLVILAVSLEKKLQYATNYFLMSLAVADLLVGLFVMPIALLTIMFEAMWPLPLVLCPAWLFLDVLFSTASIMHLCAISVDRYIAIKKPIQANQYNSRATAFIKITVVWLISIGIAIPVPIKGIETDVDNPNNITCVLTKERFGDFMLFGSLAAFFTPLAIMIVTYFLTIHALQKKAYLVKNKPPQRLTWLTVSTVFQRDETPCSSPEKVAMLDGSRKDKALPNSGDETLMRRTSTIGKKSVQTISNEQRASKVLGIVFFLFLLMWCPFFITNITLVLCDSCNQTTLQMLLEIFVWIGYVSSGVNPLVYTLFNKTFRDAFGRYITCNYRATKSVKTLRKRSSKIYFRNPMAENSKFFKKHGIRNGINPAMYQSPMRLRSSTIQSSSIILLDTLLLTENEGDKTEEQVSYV
# Procedure, shortened: as §1
# [7] = biological target: T6, cloned human or rodent CNS receptors, channels, and transporters (PDSP panel) (Homo sapiens, UniProt P08172); conditions: Receptor M2, primary assay, 10 μM; for Mean %: mean of Inhibition 1-4
# T6 construct: expressed in transfected cells
# T6 sequence (P08172 1-466): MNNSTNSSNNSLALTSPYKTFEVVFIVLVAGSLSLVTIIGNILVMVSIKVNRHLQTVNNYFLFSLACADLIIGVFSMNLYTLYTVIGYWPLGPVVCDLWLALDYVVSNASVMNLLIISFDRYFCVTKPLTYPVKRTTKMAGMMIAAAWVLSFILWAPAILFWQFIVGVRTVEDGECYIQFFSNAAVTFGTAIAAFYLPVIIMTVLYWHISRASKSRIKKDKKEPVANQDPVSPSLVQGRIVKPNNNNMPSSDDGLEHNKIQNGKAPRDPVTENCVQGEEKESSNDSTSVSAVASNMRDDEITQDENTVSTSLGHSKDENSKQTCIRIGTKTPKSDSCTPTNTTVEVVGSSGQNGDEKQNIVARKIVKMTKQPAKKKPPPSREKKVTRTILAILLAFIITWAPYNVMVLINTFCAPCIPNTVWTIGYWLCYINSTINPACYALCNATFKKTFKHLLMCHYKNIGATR
# Procedure, shortened: as §1
compound,measurement,setting,value
"CCCCNc1ncc2c(-c3ccc(CN4CCN(C)CC4)cc3)cn([C@H]3CC[C@H](O)CC3)c2n1 [UNC2025C, UNC2025]",Affinity for receptors in primary assays,[1]; 46-47 primary binding assays,possessed affinity for the most receptors in primary assays
same,Inhibition 1,[1]; Receptor Alpha1A,55.27%
same,Inhibition 2,[1]; Receptor Alpha1A,34.14%
same,Inhibition 3,[1]; Receptor Alpha1A,47.98%
same,Inhibition 4,[1]; Receptor Alpha1A,43.68%
same,Mean %,[1]; Receptor Alpha1A,45.27%
same,Inhibition 1,[1]; Receptor Alpha2A,41.44%
same,Inhibition 2,[1]; Receptor Alpha2A,35.02%
same,Inhibition 3,[1]; Receptor Alpha2A,40.8%
same,Inhibition 4,[1]; Receptor Alpha2A,38.73%
same,Mean %,[1]; Receptor Alpha2A,39%
same,Inhibition 1,[1]; Receptor Alpha2C,51.96%
same,Inhibition 2,[1]; Receptor Alpha2C,38.52%
same,Inhibition 3,[1]; Receptor Alpha2C,26.65%
same,Inhibition 4,[1]; Receptor Alpha2C,27.54%
same,Mean %,[1]; Receptor Alpha2C,36.17%
same,Inhibition 1,[1]; Receptor BZP Rat Brain Site,-0.21%
same,Inhibition 2,[1]; Receptor BZP Rat Brain Site,6.71%
same,Inhibition 3,[1]; Receptor BZP Rat Brain Site,5.47%
same,Inhibition 4,[1]; Receptor BZP Rat Brain Site,13.44%
same,Mean %,[1]; Receptor BZP Rat Brain Site,6.35%
same,Inhibition 1,[1]; Receptor DOR,-5.58%
same,Inhibition 2,[1]; Receptor DOR,-6.66%
same,Inhibition 3,[1]; Receptor DOR,-9.56%
same,Inhibition 4,[1]; Receptor DOR,1.65%
same,Mean %,[1]; Receptor DOR,-5.04%
same,Inhibition 1,[1]; Receptor H3,93.48%
same,Inhibition 2,[1]; Receptor H3,95.52%
same,Inhibition 3,[1]; Receptor H3,93.48%
same,Inhibition 4,[1]; Receptor H3,100.47%
same,Mean %,[1]; Receptor H3,95.74%
same,Inhibition 1,[1]; Receptor H4,42.06%
same,Inhibition 2,[1]; Receptor H4,42.3%
same,Inhibition 3,[1]; Receptor H4,60.79%
same,Inhibition 4,[1]; Receptor H4,92.47%
same,Mean %,[1]; Receptor H4,59.41%
same,Inhibition 1,[1]; Receptor Sigma 1,4.46%
same,Inhibition 2,[1]; Receptor Sigma 1,61.96%
same,Inhibition 3,[1]; Receptor Sigma 1,35.63%
same,Inhibition 4,[1]; Receptor Sigma 1,46.38%
same,Mean %,[1]; Receptor Sigma 1,37.11%
same,Inhibition 1,[1]; Receptor Sigma 2,97.53%
same,Inhibition 2,[1]; Receptor Sigma 2,96.04%
same,Inhibition 3,[1]; Receptor Sigma 2,97.25%
same,Inhibition 4,[1]; Receptor Sigma 2,98.03%
same,Mean %,[1]; Receptor Sigma 2,97.21%
same,Inhibition 1,[2],67.05% and 40.06%
same,Inhibition 2,[2],52.92% and 42.04%
same,Inhibition 3,[2],47% and 40.28%
same,Inhibition 4,[2],46.05% and 54.77%
same,Mean %,[2],53.26% and 44.29%
same,Inhibition 1,[3],56.29%
same,Inhibition 2,[3],47.54%
same,Inhibition 3,[3],58.45%
same,Inhibition 4,[3],64.82%
same,Mean %,[3],56.78%
same,Inhibition 1,[4],16.16%
same,Inhibition 2,[4],21.19%
same,Inhibition 3,[4],19.69%
same,Inhibition 4,[4],10.93%
same,Mean %,[4],16.99%
same,Inhibition 1,[5],34.93%
same,Inhibition 2,[5],33.32%
same,Inhibition 3,[5],29.49%
same,Inhibition 4,[5],24.93%
same,Mean %,[5]; mean of Inhibition 1-4,30.67%
same,Inhibition 1,[6],1.21%
same,Inhibition 2,[6],8.76%
same,Inhibition 3,[6],-7.6%
same,Inhibition 4,[6],18.41%
same,Mean %,[6],5.2%
same,Inhibition 1,[7],32.43%
same,Inhibition 2,[7],20.76%
same,Inhibition 3,[7],14.93%
same,Inhibition 4,[7],24.5%
same,Mean %,[7],23.16%
"c1cn2cc(-c3ccc4cn[nH]c4c3)nc(Nc3ccc(N4CCOCC4)cc3)c2n1 [UNC10302678A, Entospletinib (GS-9973)]",Inhibition 1,[1]; Receptor Alpha1A,-6.64%
same,Inhibition 2,[1]; Receptor Alpha1A,-39.37%
same,Inhibition 3,[1]; Receptor Alpha1A,-29.27%
same,Inhibition 4,[1]; Receptor Alpha1A,-15.24%
same,Mean %,[1]; Receptor Alpha1A,-22.63%
same,Inhibition 1,[1]; Receptor Alpha2A,-9.73%
same,Inhibition 2,[1]; Receptor Alpha2A,-11.16%
same,Inhibition 3,[1]; Receptor Alpha2A,-12.52%
same,Inhibition 4,[1]; Receptor Alpha2A,5.61%
same,Mean %,[1]; Receptor Alpha2A,-6.95%
same,Inhibition 1,[1]; Receptor Alpha2C,4.82%
same,Inhibition 2,[1]; Receptor Alpha2C,7.15%
same,Inhibition 3,[1]; Receptor Alpha2C,3.37%
same,Inhibition 4,[1]; Receptor Alpha2C,11.76%
same,Mean %,[1]; Receptor Alpha2C,6.78%
same,Inhibition 1,[1]; Receptor BZP Rat Brain Site,2.63%
same,Inhibition 2,[1]; Receptor BZP Rat Brain Site,-6.94%
same,Inhibition 3,[1]; Receptor BZP Rat Brain Site,-0.59%
same,Inhibition 4,[1]; Receptor BZP Rat Brain Site,10.21%
same,Mean %,[1]; Receptor BZP Rat Brain Site,1.33%
same,Inhibition 1,[1]; Receptor DOR,-7.03%
same,Inhibition 2,[1]; Receptor DOR,-15.52%
same,Inhibition 3,[1]; Receptor DOR,1.47%
same,Inhibition 4,[1]; Receptor DOR,-11.54%
same,Mean %,[1]; Receptor DOR,-8.16%
same,Inhibition 1,[1]; Receptor H3,4.01%
same,Inhibition 2,[1]; Receptor H3,32.57%
same,Inhibition 3,[1]; Receptor H3,40.44%
same,Inhibition 4,[1]; Receptor H3,49.18%
same,Mean %,[1]; Receptor H3,31.55%
same,Inhibition 1,[1]; Receptor H4,40.38%
same,Inhibition 2,[1]; Receptor H4,31.02%
same,Inhibition 3,[1]; Receptor H4,31.26%
same,Inhibition 4,[1]; Receptor H4,64.39%
same,Mean %,[1]; Receptor H4,41.76%
same,Inhibition 1,[1]; Receptor Sigma 1,24.21%
same,Inhibition 2,[1]; Receptor Sigma 1,17.43%
same,Inhibition 3,[1]; Receptor Sigma 1,8.82%
same,Inhibition 4,[1]; Receptor Sigma 1,-3.67%
same,Mean %,[1]; Receptor Sigma 1,11.7%
same,Inhibition 1,[1]; Receptor Sigma 2,10.94%
same,Inhibition 2,[1]; Receptor Sigma 2,-1.79%
same,Inhibition 3,[1]; Receptor Sigma 2,-3.28%
same,Inhibition 4,[1]; Receptor Sigma 2,-0.08%
same,Mean %,[1]; Receptor Sigma 2,1.45%
same,Inhibition 1,[2],-3.87% and -2.7%
same,Inhibition 2,[2],-11.22% and -16.36%
same,Inhibition 3,[2],-0.44% and -2.13%
same,Mean %,[2],1.02% and -6.36%
same,Inhibition 1,[3],27.87%
same,Inhibition 2,[3],18.37%
same,Inhibition 3,[3],25.5%
same,Inhibition 4,[3],31.55%
same,Mean %,[3],25.82%
same,Inhibition 1,[4],-6.98%
same,Inhibition 2,[4],-7.99%
same,Inhibition 3,[4],1.47%
same,Inhibition 4,[4],5.9%
same,Mean %,[4],-1.9%
same,Inhibition 1,[6],61.2%
same,Inhibition 2,[6],0.79%
same,Inhibition 3,[6],-21.45%
same,Inhibition 4,[6],15.05%
same,Mean %,[6],13.9%
same,Inhibition 1,[7],-17.67%
same,Inhibition 2,[7],-16.44%
same,Inhibition 3,[7],-12.26%
same,Inhibition 4,[7],-13.73%
same,Mean %,[7],-15.03%
